Reference: patent publication US20060058504A1, “Peptides capable of inducing attraction to the axonal growth and their use for treating neurodegenerative diseases” (Centre National de la Recherche Scientific (CNRS), priority 2002, published 2006)
“Also recorded” adds a separate entry of the source.

What was measured:
[1] = system: cortical axons repelled by Sema3A secreted from the ventral spinal cord; assay: Co-culture of cortical slices and ventral spinal cord explants (axon guidance response to Sema3A); type: cell-based, mice
How it was run: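 Cortical slices from P0–P2 mice were co-cultured in a 3D plasma clot with ventral cervical spinal cord explants, alone or with L1Fc chimeras (3 μg/ml), ODQ (10^−5 M) or 7NI ([…]). After 1–2 DIV and PFA fixation, guidance was scored from −2 (repulsion) to +2 (attraction). Axon number and the three longest fibre lengths were measured in proximal and distal 600 μm regions.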

[2] = system: Sema3A-induced endocytosis in neonatal cortical cells; assay: Rhodamine-Dextran uptake in neonatal cortical cells; type: cell-based; details: 15 min, peptide 10^−5M
Procedure: (§1) Neonatal cortical cells or COS7 cells transfected with expression vectors for L1 and NP-1 were incubated for 15 min with Rhodamine-Dextran (2 mg/ml) mixed to a solution of Sema3A-AP supernatant, Sema3A and peptide (10^−5M), peptide alone (10^−5M) or control supernatant. Cells were fixed with PFA 4% and processed for immunocytochemistry as described in the above sections. To detect intracellular proteins, cells were permeabilized with methanol for 2 min.
(§2) Therefore it has been tested whether L1 mimetic peptide was able to block endocytosis. To visualize endocytosis we examined the uptake of Rhodamine-Dextran applied on live cortical cultures in various conditions. Cells were treated for 15 min with Rhodamine-Dextran together with Sema3A alone, Sema3A combined with the L1 mimetic peptide, peptide alone or untreated as control conditions. Strikingly, uptake of Rhodamine-Dextran was exclusively observed when cells were treated with Sema3A alone. Under this condition, spots of internalized fluorescence were observed along axon shafts and surrounding the cell bodies. […] To correlate this process with L1/NP-1 cis and trans interactions, the experiments of Rhodamine-Dextran uptake were performed on COS7 cells transfected to co-express L1 and NP-1 (FIG. 6B).

[3] = system: Sema3A-induced endocytosis in COS7 cells co-expressing L1 and NP-1; assay: Rhodamine-Dextran uptake in COS7 cells co-expressing L1 and NP-1; type: cell-based; details: 15 min, peptide 10^−5M
Procedure: as §1, §2

[4] = system: Sema3A-induced co-internalization of L1 and NP-1; assay: Immunocytochemical detection of cell-surface L1 and NP-1; type: cell-based; details: peptide 10^−5M
Procedure: as §1
In parallel, cells submitted to the same treatments were processed for immunocytochemical detection of L1 and NP-1. […] Furthermore, in the Sema3A-treated cultures L1 and NP-1 immunoreactivities were detected after permeabilization, as co-localized cytoplasmic patches (FIGS. 7F-7H).

L1/NP-1 complex = assay: Co-immunoprecipitation of the L1/NP-1 complex in presence of peptide; type: binding; details: Sema3A combined to the peptide
Procedure: COS cells were transfected with various expression vectors coding for full-length HA-tagged NP-1, myc-tagged cyt-deleted NP-1, wild-type L1, and L1 mutant constructs (G121S, A426D, L120V) using a lipofection transfection method (lipofectamine). After 2 DIV, cells were lysed with immunoprecipitation buffer (IP buffer: Hepes 25 mM, EDTA 5 mM, MgCl2 1 mM, PMSF 2 mM, glycerol 10% and triton X100 1%, pH 7). The lysate was incubated at 4° C. for 30 min, centrifuged for 5 min and pre-cleared with protein A-Sepharose for 2 hrs at 4° C. Samples were immunoprecipitated with mouse anti-HA (3μl, clone 12CA5, Roche), rabbit anti-L1 antibodies (3 μl), mouse anti-myc antibodies (3 μl, 9E 10, Sigma) coupled to rabbit anti-mouse antibodies on protein A preformed complexes for 16 hrs at 4° C. The beads were washed, and the precipitates analyzed by immunoblot using anti-HA (1:1000) and anti-L1 (1:1000) antibodies.
A possible molecular mechanism by which soluble L1 and its mimetic peptide could exert their modulatory effect on Sema3A signaling is that they compete with transmembrane L1 in the L1/NP-1 complex. To address this issue we examined in immunoprecipitation experiments the L1/NP-1 complex in conditions mimicking either a repulsive (Sema3A alone) or an attractive (Sema3A combined to the peptide) environment. […]

[5] = target: the molecule itself; assay: two-color FACS bead aggregation, mutant to mutant (FIG. 2B)
Procedure: Excess unbound protein was removed by washing with PBS/5% FCS. […] Samples were diluted 1:5000 into ice cold PBS and the proportion of 2 colour aggregates was assessed using a fluorescence activated cell sorter (Becton Dickenson FACSort). […] Every mutant protein was assayed at least 3 separate times and standardised to a wild-type control conducted in parallel.

[6] = target: T1, full-length wild-type human L1 expressed in COS7 cells (human, UniProt P32004 20-1257); assay: immunofluorescence of L1Fc on COS cells expressing wild-type L1
T1 construct: whole, on cells; also called wild-type L1; transmembrane L1
Procedure: Briefly, COS-7 cells were transiently transfected with 10 μg DNA per 150 mm culture dish, the soluble Fc chimeric protein was allowed to accumulate in the media for 6 days and was recovered and purified by protein A-Sepharose affinity chromatography. In the binding experiments, L1Fcs were cross-linked to anti-human Fc antibodies (50 μg/ml, Jackson Immunoresearch) for 1 hr at 37° C. […] Following incubation, the cells were fixed with 4% PFA, and processed for double-immunofluorescence detection. NP-1 was detected using a mouse anti-c myc antibody (clone 9E10, Sigma) and L1 using a rat monoclonal anti-L1 antibody. […] After secondary antibody incubation, the cells were washed with PBS and mounted in Mowiol (Calbiochem).

L1/NP-1 complex, sequence (O14786 22-923): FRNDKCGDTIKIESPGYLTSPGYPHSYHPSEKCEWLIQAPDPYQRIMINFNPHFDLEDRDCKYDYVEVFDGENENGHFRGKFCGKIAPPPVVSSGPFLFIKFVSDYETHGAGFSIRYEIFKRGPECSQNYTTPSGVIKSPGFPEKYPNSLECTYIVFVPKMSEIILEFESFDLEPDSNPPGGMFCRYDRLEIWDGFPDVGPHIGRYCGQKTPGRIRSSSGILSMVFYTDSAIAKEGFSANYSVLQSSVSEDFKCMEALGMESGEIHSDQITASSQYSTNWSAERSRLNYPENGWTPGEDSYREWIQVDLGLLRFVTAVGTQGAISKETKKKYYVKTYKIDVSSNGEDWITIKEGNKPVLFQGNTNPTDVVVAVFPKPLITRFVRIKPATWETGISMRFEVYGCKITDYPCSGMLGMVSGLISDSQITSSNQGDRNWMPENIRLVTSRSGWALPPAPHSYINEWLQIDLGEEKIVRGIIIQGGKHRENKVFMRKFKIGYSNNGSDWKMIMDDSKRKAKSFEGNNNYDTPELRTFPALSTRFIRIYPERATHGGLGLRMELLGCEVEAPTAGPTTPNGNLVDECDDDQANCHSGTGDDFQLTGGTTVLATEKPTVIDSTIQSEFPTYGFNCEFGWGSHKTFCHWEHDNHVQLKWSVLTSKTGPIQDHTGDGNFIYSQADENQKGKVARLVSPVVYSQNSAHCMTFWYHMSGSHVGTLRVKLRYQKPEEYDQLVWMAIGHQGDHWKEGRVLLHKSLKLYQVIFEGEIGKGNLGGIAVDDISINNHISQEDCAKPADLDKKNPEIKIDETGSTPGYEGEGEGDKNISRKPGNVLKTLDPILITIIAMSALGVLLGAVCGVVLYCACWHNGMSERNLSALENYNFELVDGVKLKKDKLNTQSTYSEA
L1/NP-1 complex, sequence (P32004 20-1257 partner): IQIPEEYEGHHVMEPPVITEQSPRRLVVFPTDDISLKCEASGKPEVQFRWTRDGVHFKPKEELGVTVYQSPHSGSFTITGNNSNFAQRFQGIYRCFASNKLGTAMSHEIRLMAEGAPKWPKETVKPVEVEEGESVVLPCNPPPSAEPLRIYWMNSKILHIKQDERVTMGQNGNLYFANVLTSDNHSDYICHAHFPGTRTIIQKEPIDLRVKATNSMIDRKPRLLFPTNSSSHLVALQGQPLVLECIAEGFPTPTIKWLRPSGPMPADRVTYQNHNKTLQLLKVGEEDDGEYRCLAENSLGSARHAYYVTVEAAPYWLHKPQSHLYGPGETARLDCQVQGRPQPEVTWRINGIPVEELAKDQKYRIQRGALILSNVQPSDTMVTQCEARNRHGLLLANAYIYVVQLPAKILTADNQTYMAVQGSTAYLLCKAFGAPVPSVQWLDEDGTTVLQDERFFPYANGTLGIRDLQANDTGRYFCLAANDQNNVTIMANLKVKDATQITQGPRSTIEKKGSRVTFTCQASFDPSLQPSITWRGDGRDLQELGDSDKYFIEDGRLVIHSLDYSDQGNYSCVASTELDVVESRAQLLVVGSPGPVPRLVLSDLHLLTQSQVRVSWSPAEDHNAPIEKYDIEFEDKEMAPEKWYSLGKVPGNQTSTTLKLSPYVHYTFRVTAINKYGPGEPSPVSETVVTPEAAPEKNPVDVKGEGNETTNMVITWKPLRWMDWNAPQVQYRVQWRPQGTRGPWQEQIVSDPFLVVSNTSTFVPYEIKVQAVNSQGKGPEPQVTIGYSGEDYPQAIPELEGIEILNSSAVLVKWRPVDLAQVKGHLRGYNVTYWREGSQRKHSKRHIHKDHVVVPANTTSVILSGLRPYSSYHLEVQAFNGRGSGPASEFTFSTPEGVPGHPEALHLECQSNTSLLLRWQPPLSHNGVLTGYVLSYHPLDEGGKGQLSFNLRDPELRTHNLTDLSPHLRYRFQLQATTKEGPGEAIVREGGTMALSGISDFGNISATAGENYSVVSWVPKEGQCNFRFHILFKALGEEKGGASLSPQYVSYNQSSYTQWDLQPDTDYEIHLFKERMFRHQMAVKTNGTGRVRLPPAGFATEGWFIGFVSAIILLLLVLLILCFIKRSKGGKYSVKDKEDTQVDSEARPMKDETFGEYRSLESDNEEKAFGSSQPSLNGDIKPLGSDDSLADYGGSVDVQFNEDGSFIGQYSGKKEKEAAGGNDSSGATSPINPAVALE

| binding result [6] | Molecule | switching of Sema3A repulsion to attraction by peptide ([1]; peptide at 10^−5 and 10^−6M) | conversion of Sema3A-induced chemorepulsion into attraction by peptide ([1]; peptide at 10^−6M) | Rhodamine-Dextran uptake, Sema3A combined with peptide ([2]; listed as L1 mimetic peptide) | Rhodamine-Dextran uptake, peptide alone ([2]; listed as L1 mimetic peptide) | Rhodamine-Dextran uptake, Sema3A combined with peptide ([2]; listed as peptide mimicking soluble L1) | Rhodamine-Dextran uptake, Sema3A combined with peptide [3] | Rhodamine-Dextran uptake, peptide alone [3] | Rhodamine-Dextran uptake, Sema3A combined with peptide ([3]; listed as mimetic peptide) | Rhodamine-Dextran uptake, peptide alone ([3]; listed as mimetic peptide) | L1 and NP-1 cell surface expression, Sema3A combined with peptide [4] | L1 and NP-1 cell surface expression, peptide alone [4] | L1 and NP-1 cell surface expression, Sema3A combined with peptide ([4]; listed as switching peptide) | L1 and NP-1 cell surface expression, peptide alone ([4]; listed as switching peptide) | cis interaction between L1 and NP-1 in presence of the peptide (L1/NP-1 complex) | binding result [5] |
| --- | --- | --- | --- | --- | --- | --- | --- | --- | --- | --- | --- | --- | --- | --- | --- | --- |
|  | FASNKL (Description of the Artificial sequence Derived from the human amino-acid sequence of L1 Ig1 domain) [FASNKL120, six amino-acid peptide from L1 Ig1 domain] | switched Sema3A repulsion to attraction | successfully converted Sema3A-induced chemorepulsion into attraction | blocks Sema3A-induced endocytosis; also recorded: Internalization was blocked | no uptake of Rhodamine-Dextran could be detected; also recorded: Uptake of Rhodamine-Dextran was not detected | blocks Sema3A-induced endocytosis | This process was blocked | no endocytosis could be detected | but not Sema3A combined with the mimetic peptide induced internalization | No fluorescent labeling was detected | the two proteins were detected; also recorded: blocked by the peptide; also recorded: detected on the cell membrane | cell surface expression was observed | this process was blocked | the two proteins were detected | did not abrogate the cis interaction between L1 and NP-1 |  |
| no binding | G121S mutant L1Fc chimera (Fc fusion, UniProt P32004 20-1120, looked up, also called G121S-L1Fc; not shown: immunoglobulin Fc, human) IQIPEEYEGHHVMEPPVITEQSPRRLVVFPTDDISLKCEASGKPEVQFRWTRDGVHFKPKEELGVTVYQSPHSGSFTITGNNSNFAQRFQGIYRCFASNKLSTAMSHEIRLMAEGAPKWPKETVKPVEVEEGESVVLPCNPPPSAEPLRIYWMNSKILHIKQDERVTMGQNGNLYFANVLTSDNHSDYICHAHFPGTRTIIQKEPIDLRVKATNSMIDRKPRLLFPTNSSSHLVALQGQPLVLECIAEGFPTPTIKWLRPSGPMPADRVTYQNHNKTLQLLKVGEEDDGEYRCLAENSLGSARHAYYVTVEAAPYWLHKPQSHLYGPGETARLDCQVQGRPQPEVTWRINGIPVEELAKDQKYRIQRGALILSNVQPSDTMVTQCEARNRHGLLLANAYIYVVQLPAKILTADNQTYMAVQGSTAYLLCKAFGAPVPSVQWLDEDGTTVLQDERFFPYANGTLGIRDLQANDTGRYFCLAANDQNNVTIMANLKVKDATQITQGPRSTIEKKGSRVTFTCQASFDPSLQPSITWRGDGRDLQELGDSDKYFIEDGRLVIHSLDYSDQGNYSCVASTELDVVESRAQLLVVGSPGPVPRLVLSDLHLLTQSQVRVSWSPAEDHNAPIEKYDIEFEDKEMAPEKWYSLGKVPGNQTSTTLKLSPYVHYTFRVTAINKYGPGEPSPVSETVVTPEAAPEKNPVDVKGEGNETTNMVITWKPLRWMDWNAPQVQYRVQWRPQGTRGPWQEQIVSDPFLVVSNTSTFVPYEIKVQAVNSQGKGPEPQVTIGYSGEDYPQAIPELEGIEILNSSAVLVKWRPVDLAQVKGHLRGYNVTYWREGSQRKHSKRHIHKDHVVVPANTTSVILSGLRPYSSYHLEVQAFNGRGSGPASEFTFSTPEGVPGHPEALHLECQSNTSLLLRWQPPLSHNGVLTGYVLSYHPLDEGGKGQLSFNLRDPELRTHNLTDLSPHLRYRFQLQATTKEGPGEAIVREGGTMALSGISDFGNISATAGENYSVVSWVPKEGQCNFRFHILFKALGEEKGGASLSPQYVSYNQSSYTQWDLQPDTDYEIHLFKERMFRHQMAVKTNGTGRVRLPPAGFATE |  |  |  |  |  |  |  |  |  |  |  |  |  |  | binds |
